Assay: Solubility tests of biocides in different solvents
Description: The solubility of various herbicides, fungicides and insecticides has been tested using different solvents.

[1] = in 100 ml of solvent C8-C10 fatty acid dimethyl amide (1:1) (Example 11)
[2] = in 100 ml of solvent C8-C10 fatty acid methyl ester (Comparative Example C14)
[3] = in 100 ml of solvent C8 fatty acid dimethylamide (Example 9)
[4] = in 100 ml of solvent C10 fatty acid dimethyl amide (Example 10)
[5] = in 100 ml of solvent C18 fatty acid dimethyl amide (Comparative Example C13)

Question: What does the source list for `Cc1c(COC(=O)[C@@H]2[C@H](/C=C(\Cl)C(F)(F)F)C2(C)C)cccc1-c1ccccc1` (racemic) [Bifenthrin]?
Answer: Solubility [1]: 34 percent by weight; Solubility [2]: 0 percent by weight; Solubility [3]: 30 percent by weight; Solubility [4]: 31 percent by weight; Solubility [5]: 10 percent by weight

Question: Which results are given for `O=C(NC(=O)c1c(F)cccc1F)Nc1ccc(OC(F)(F)C(F)OC(F)(F)F)c(Cl)c1` (stereo not drawn) [Novaluron]?
Answer: Solubility [1]: 32 percent by weight; Solubility [2]: 1 percent by weight; Solubility [3]: 28 percent by weight; Solubility [4]: 28 percent by weight; Solubility [5]: 8 percent by weight

Question: What does the source list for `CCOc1cc(Oc2ccc(C(F)(F)F)cc2Cl)ccc1[N+](=O)[O-]` [Oxyfluorfen]?
Answer: Solubility (in 100 ml of solvent C6-C12 fatty alcohol + 6PO (Comparative Example C4)): 10 percent by weight; Solubility (in 100 ml of solvent C6 fatty acid dimethyl amide (Comparative Example C1)): 12 percent by weight; Solubility (in 100 ml of solvent C8-C10 fatty acid dimethyl amide (1:1) (Example 3)): 31 percent by weight; Solubility (in 100 ml of solvent C8-C10 fatty acid methyl ester (Comparative Example C3)): 3 percent by weight; Solubility (in 100 ml of solvent C8 fatty acid dimethylamide (Example 1)): 25 percent by weight; Solubility (in 100 ml of solvent C10 fatty acid dimethyl amide (Example 2)): 28 percent by weight; Solubility (in 100 ml of solvent C12-C15 benzoate (Comparative Example C5)): 7 percent by weight; Solubility (in 100 ml of solvent C12 fatty acid dimethyl amide (Example 4)): 27 percent by weight; Solubility (in 100 ml of solvent C18 fatty acid dimethyl amide (Comparative Example C2)): 19 percent by weight; Solubility (in 100 ml of solvent Di-C8 alkyl carbonate (Comparative Example C6)): 4 percent by weight

Question: Which Solubility (in 100 ml of solvent C6 fatty acid dimethyl amide (Comparative Example C7)) does the source give for `CC(C)(C)C(O)(CCc1ccc(Cl)cc1)Cn1cncn1` (stereo not drawn) [Tebucanazole] here?
Answer: Its Solubility is 18 percent by weight.

Question: And the Solubility (in 100 ml of solvent C8-C10 fatty acid dimethyl amide (1:1) (Example 7))?
Answer: The Solubility was 39 percent by weight.

Question: And the Solubility (in 100 ml of solvent C8-C10 fatty acid methyl ester (Comparative Example C9))?
Answer: The Solubility was 9 percent by weight.

Question: And the Solubility (in 100 ml of solvent C8 fatty acid dimethylamide (Example 5))?
Answer: The Solubility was 30 percent by weight.

Question: What about the Solubility (in 100 ml of solvent C10 fatty acid dimethyl amide (Example 6)) of the same compound?
Answer: The Solubility was 33 percent by weight.

Question: What about the Solubility (in 100 ml of solvent C12 fatty acid dimethyl amide (Example 8)) of the same compound?
Answer: The Solubility was 35 percent by weight.

Question: And the Solubility (in 100 ml of solvent C18 fatty acid dimethyl amide (Comparative Example C8))?
Answer: Its Solubility is 22 percent by weight.

Question: And the Solubility (in 100 ml of solvent Di-C8 alkyl carbonate (Comparative Example C11))?
Answer: The Solubility was 2 percent by weight.

Question: What about the Solubility (in 100 ml of solvent Di-C8 alkyl ether (Comparative Example C12)) of the same compound?
Answer: Its Solubility is 2 percent by weight.

Question: What about the Solubility (in 100 ml of solvent Triacetin (Comparative Example C10)) of the same compound?
Answer: Its Solubility is 6 percent by weight.

Source: patent US20110124505A1, “Agricultural Compositions” (COGNIS IP MANAGEMENT GMBH, priority 2008, published 2011)
